From patent US8563542B2 (Cyclacel Limited, priority 2007, dated 2013)

Molecular target: T1, AA (Homo sapiens, UniProt O14965)
T1 sequence (O14965 1-403): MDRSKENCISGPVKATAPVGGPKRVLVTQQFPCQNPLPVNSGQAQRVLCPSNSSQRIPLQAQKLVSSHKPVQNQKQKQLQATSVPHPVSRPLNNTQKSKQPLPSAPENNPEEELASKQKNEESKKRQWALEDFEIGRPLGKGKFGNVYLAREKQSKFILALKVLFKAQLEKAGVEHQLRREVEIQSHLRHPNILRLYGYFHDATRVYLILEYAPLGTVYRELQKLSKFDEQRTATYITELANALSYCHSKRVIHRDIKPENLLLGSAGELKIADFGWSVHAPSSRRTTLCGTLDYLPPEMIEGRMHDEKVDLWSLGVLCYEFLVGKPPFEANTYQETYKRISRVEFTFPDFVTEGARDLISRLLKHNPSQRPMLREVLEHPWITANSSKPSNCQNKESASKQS
Experiment: AA IC50 (Table 1; no method given)
Assay type: biochemical
Conditions: Table 2, AurA IC50; class symbols; read-out: AurA IC50

SMILES | IC50 [nM]
CN1C(=O)CCN(CC2CC2)c2nc(Nc3ccc4c(c3)CS(=O)(=O)C4)ncc21 [compound 114, 9-Cyclopropylmethyl-2-(2,2-dioxo-2,3-dihydro-1H-2lambda*6*-benzo[c]thiophen-5-ylamino)-5-methyl-5,7,8,9-tetrahydro-pyrimido[4,5-b][1,4]diazepin-6-one] | < 100
CC(C)CCN1CCC(=O)N(C)c2cnc(Nc3ccc4c(c3)CS(=O)(=O)C4)nc21 [compound 116, 2-(2,2-Dioxo-2,3-dihydro-1H-2lambda*6*- benzo[c]thiophen-5-ylamino)-5-methyl-9-(3-methyl-butyl)-5,7,8,9-tetrahydro-pyrimido[4,5-b][1,4]diazepin-6-one] | < 1000
CN1C(=O)C2(CCCC2)CN(C2CCCC2)c2nc(Nc3ccc4c(c3)CS(=O)(=O)C4)ncc21 [compound 118, (9-Cyclopentyl-2-(2,2-dioxo-2,3-dihydro-1H-2lambda*6*-benzo[c]thiophen-5-ylamino)5-methyl-6-oxo-6,7,8,9-tetrahydro-5H-spiro[pyrimido[4,5-b][1,4]diazepin-3,1′-cyclopentane]] | < 1000
CCC(CC)N1CCC(=O)N(CC)c2cnc(Nc3ccc4c(c3)CS(=O)(=O)C4)nc21 [compound 120, 2-(2,2-Dioxo-2,3-dihydro-1H-2lambda*6*- benzo[c]thiophen-5-ylamino)-5-ethyl-9-(1-ethyl-propyl)-5,7,8,9-tetrahydro-pyrimido[4,5-b][1,4]diazepin-6-one] | < 100
CN1C(=O)CCN(C(C)(C)C)c2nc(Nc3ccc4c(c3)CS(=O)(=O)C4)ncc21 [compound 121, 9-tert-Butyl-2-(2,2-dioxo-2,3-dihydro-1H-2lambda*6*-benzo[c]thiophen-5-ylamino)-5-methyl-5,7,8,9-tetrahydro-pyrimido[4,5-b][1,4]diazepin-6-one] | < 1000
CCN1C(=O)CCN(C(C)(C)C)c2nc(Nc3ccc4c(c3)CS(=O)(=O)C4)ncc21 [compound 122, 9-tert-Butyl-2-(2,2-dioxo-2,3-dihydro-1H-2lambda*6*-benzo[c]thiophen-5-ylamino)-5-ethyl-5,7,8,9-tetrahydro-pyrimido[4,5-b][1,4]diazepin-6-one] | < 1000
CCN1C(=O)CCNc2nc(Nc3ccc4c(c3)CS(=O)(=O)C4)ncc21 [compound 126, 2-(2,2-Dioxo-2,3-dihydro-1H-2lambda*6*- benzo[c]thiophen-5-ylamino)-5-ethyl-5,7,8,9-tetrahydro-pyrimido[4,5-b][1,4]diazepin-6-one] | < 10000
COc1ccccc1N1CCC(=O)N(C)c2cnc(Nc3ccc4c(c3)CS(=O)(=O)C4)nc21 [compound 133, 2-(2,2-Dioxo-2,3-dihydro-1H-2lambda*6*- benzo[c]thiophen-5-ylamino)-9-(2-methoxy-phenyl)-5-methyl-5,7,8,9-tetrahydro-pyrimido[4,5-b][1,4]diazepin-6-one] | < 1000
Cc1ccccc1N1CCC(=O)N(C)c2cnc(Nc3ccc4c(c3)CS(=O)(=O)C4)nc21 [compound 134, 2-(2,2-Dioxo-2,3-dihydro-1H-2lambda*6*- benzo[c]thiophen-5-ylamino)-5-methyl-9-o-tolyl-5,7,8,9-tetrahydro-pyrimido[4,5-b][1,4]diazepin-6-one] | < 1000
CN1C(=O)CCN(c2ccccc2Cl)c2nc(Nc3ccc4c(c3)CS(=O)(=O)C4)ncc21 [compound 135, 9-(2-Chloro-phenyl)-2-(2,2-dioxo-2,3-dihydro-1H-2lambda*6*-benzo[c]thiophen-5-ylamino)-5-methyl-5,7,8,9-tetrahydro-pyrimido[4,5-b][1,4]diazepin-6-one] | < 1000
COc1cccc(N2CCC(=O)N(C)c3cnc(Nc4ccc5c(c4)CS(=O)(=O)C5)nc32)c1 [compound 136, 2-(2,2-Dioxo-2,3-dihydro-1H-2lambda*6*- benzo[c]thiophen-5-ylamino)-9-(3-methoxy-phenyl)-5-methyl-5,7,8,9-tetrahydro-pyrimido[4,5-b][1,4]diazepin-6-one] | < 1000
CC(Cc1c[nH]c2ccccc12)Nc1ncc2c(n1)N(C1CCCC1)CCC(=O)N2C (stereo not shown) [compound 175, 9-Cyclopentyl-2-[2-(1H-indo1-3-yl)-1-methyl-ethylamino]-5-methyl-5,7,8,9-tetrahydro-pyrimido[4,5-b][1,4]diazepin-6-one] | < 10000
COc1ccc(N2CCN(c3ncc4c(n3)N(C3CCCC3)CCC(=O)N4C)CC2)cc1 [compound 213, 9-Cyclopentyl-2-[4-(4-methoxy-phenyl)-piperazin-1-yl]-5-methyl-5,7,8,9-tetrahydro-pyrimido[4,5-b][1,4]diazepin-6-one] | < 10000
CC(=O)Nc1ccc(Nc2ncc3c(n2)N(C2CCCC2)CCC(=O)N3C)cc1C(F)(F)F [compound 286, N-[4-(9-Cyclopentyl-5-methyl-6-oxo-6,7,8,9-tetrahydro-5H-pyrimido[4,5-b][1,4]diazepin-2-ylamino)-2-trifluoromethyl-phenyl]-acetamide] | < 1000
Cc1cc(Nc2ncc3c(n2)N(C2CCCC2)CCC(=O)N3C)ccc1N(S(C)(=O)=O)S(C)(=O)=O [compound 288] | < 100
CN1C(=O)CCN(C2CCCC2)c2nc(Nc3ccc(S(=O)(=O)NC4CCS(=O)(=O)C4)cc3)ncc21 (stereo not shown) [compound 325, 4-(9-Cyclopentyl-5-methyl-6-oxo-6,7,8,9-tetrahydro-5H-pyrimido[4,5-b][1,4]diazepin-2-ylamino)-N-(1,1-dioxo-tetrahydro-1lambda*6*- thiophen-3-yl)-benzenesulfonamide] | < 1000
COc1ccc(N2CCC(=O)N(C)c3cnc(Nc4ccc(NC(=O)C5CC5)c(C)c4)nc32)cc1 [compound 327, Cyclopropanecarboxylic acid {4-[9-(4-methoxy-phenyl)-5-methyl-6-oxo-6,7,8,9-tetrahydro-5H-pyrimido[4,5-b][1,4]diazepin-2-ylamino]-2-methyl-phenyl}-amide] | < 100
CCN1C(=O)CCN(c2ccc(C)cc2)c2nc(Nc3ccc(NC(=O)C4CC4)c(C)c3)ncc21 [compound 328, Cyclopropanecarboxylic acid [4-(5-ethyl-6-oxo-9-p-tolyl-6,7,8,9-tetrahydro-5H-pyrimido[4,5-b][1,4]diazepin-2-ylamino)-2-methyl-phenyl]-amide] | < 10000
Cc1cc(Nc2ncc3c(n2)N(c2c(F)cccc2F)CCC(=O)N3C)ccc1NC(=O)C1CC1 [compound 329, Cyclopropanecarboxylic acid {4-[9-(2,6-difluoro-phenyl)-5-methyl-6-oxo-6,7,8,9-tetrahydro-5H-pyrimido[4,5-b][1,4]diazepin-2-ylamino]-2-methyl-phenyl}amide] | < 1000
CCN1C(=O)CCN(c2ccc(OC)cc2)c2nc(Nc3ccc(NC(=O)C4CC4)c(C)c3)ncc21 [compound 330, Cyclopropanecarboxylic acid {4-[5-ethyl-9-(4-methoxy-phenyl)-6-oxo-6,7,8,9-tetrahydro-5H-pyrimido[4,5-b][1,4]diazepin-2-ylamino]-2-methyl-phenyl}-amide] | < 10000
CCN1C(=O)CCN(c2ccc(C)cc2)c2nc(Nc3ccc4c(c3)CS(=O)(=O)C4)ncc21 [compound 331, 2-(2,2-Dioxo-2,3-dihydro-1H-2lambda*6*- benzo[c]thiophen-5-ylamino)-5-ethyl-9-p-tolyl-5,7,8,9-tetrahydro-pyrimido[4,5-b][1,4]diazepin-6-one] | < 100
COc1ccc(N2CCC(=O)N(C)c3cnc(Nc4ccc5c(c4)CS(=O)(=O)C5)nc32)cc1 [compound 332, 2-(2,2-Dioxo-2,3-dihydro-1H-2lambda*6*- benzo[c]thiophen-5-ylamino)-9-(4-methoxy-phenyl)-5-methyl-5,7,8,9-tetrahydro-pyrimido[4,5-b][1,4]diazepin-6-one] | < 100
CCN1C(=O)CCN(c2ccc(OC)cc2)c2nc(Nc3ccc4c(c3)CS(=O)(=O)C4)ncc21 [compound 333, 2-(2,2-Dioxo-2,3-dihydro-1H-2lambda*6*- benzo[c]thiophen-5-ylamino)-5-ethyl-9-(4-methoxy-phenyl)-5,7,8,9-tetrahydro-pyrimido[4,5-b][1,4]diazepin-6-one] | < 100
CN1C(=O)CCN(c2ccc(C(C)(C)C)cc2)c2nc(Nc3ccc4c(c3)CS(=O)(=O)C4)ncc21 [compound 334, 9-(4-tert-Butyl-phenyl)-2-(2,2-dioxo-2,3-dihydro-1H-2lambda*6*-benzo[c]thiophen-5-ylamino)-5-methyl-5,7,8,9-tetrahydro-pyrimido[4,5-b][1,4]diazepin-6-one] | < 10000
CCN1C(=O)CCN(c2ccc(C(C)(C)C)cc2)c2nc(Nc3ccc4c(c3)CS(=O)(=O)C4)ncc21 [compound 335, 9-(4-tert-Butyl-phenyl)-2-(2,2-dioxo-2,3-dihydro-1H-2lambda*6*-benzo[c]thiophen-5-ylamino)-5-ethyl-5,7,8,9-tetrahydro-pyrimido[4,5-b][1,4]diazepin-6-one] | < 10000
CN1C(=O)CCN(c2ccc(N3CCOCC3)cc2)c2nc(Nc3ccc4c(c3)CS(=O)(=O)C4)ncc21 [compound 336, 2-(2,2-Dioxo-2,3-dihydro-1H-2lambda*6*- benzo[c]thiophen-5-ylamino)-5-methyl-9-(4-morpholin-4-yl-phenyl)-5,7,8,9-tetrahydro-pyrimido[4,5-b][1,4]diazepin-6-one] | < 100
Cc1cc(Nc2ncc3c(n2)N(c2ccc(N4CCOCC4)cc2)CCC(=O)N3C)ccc1NC(=O)C1CC1 [compound 337] | < 100
CCN1C(=O)CCN(c2ccc(N3CCOCC3)cc2)c2nc(Nc3ccc4c(c3)CS(=O)(=O)C4)ncc21 [compound 338, 2-(2,2-Dioxo-2,3-dihydro-1H-2lambda*6*- benzo[c]thiophen-5-ylamino)-5-ethyl-9-(4-morpholin-4-yl-phenyl)-5,7,8,9-tetrahydro-pyrimido[4,5-b][1,4]diazepin-6-one] | < 1000
